The test system of assay [1] is CAM of 10-day-old chick embryos. Briefly: Chorioallantoic membrane (CAM) model of angiogenesis, Table 1. It is filed as in vivo. The conditions noted are these: for Mean Number of Branch Points ± SD: n = 8, control 76 ± 10. As to the method:
(§1) Chorioallantoic membrane (CAM) Model of Angiogenesis: In vivo Neovascularization was examined by methods described previously. 9-12 Ten-day-old chick embryos were purchased from SPAFAS (Preston, Conn.) and incubated at 37° C. with 55% relative humidity. A hypodermic needle was used to make a small hole in the shell concealing the air sac, and a second hole was made on the broad side of the egg, directly over an avascular portion of the embryonic membrane that was identified by candling. A false air sac was created beneath the second hole by the application of negative pressure at the first hole, causing the CAM to separate from the shell. A window approximately 1.0 cm 2 was cut in the shell over the dropped CAM with a small-crafts grinding wheel (Dremel, division of Emerson Electric Co.), allowing direct access to the underlying CAM. FGF2 (1 μg/mL) was used as a standard proangiogenic agent to induce new blood vessel branches on the CAM of 10-day-old embryos. Sterile disks of No. 1 filter paper (Whatman International) were pretreated with 3 mg/mL cortisone acetate. Nicotine, nicotinic acid analogs, FGF2 or control solvents, and inhibitors were then applied to the disks and the disks allowed to dry. The disks were then suspended in PBS and placed on growing CAMs. Filters treated were placed on the first day of the 3-day incubation, with antibody to FGF2 added 30 minutes later to selected samples as indicated. At 24 hours, the MAPK cascade inhibitor PD 98059 was also added to CAMs topically by means of the filter disks.
(§2) Microscopic Analysis of CAM Sections: After incubation at 37° C. with 55% relative humidity for 3 days, the CAM tissue directly beneath each filter disk was resected from control and treated CAM samples. Tissues were washed 3× with PBS, placed in 35-mm Petri dishes (Nalge Nunc), and examined under an SV6 stereomicroscope (Zeiss) at ×50 magnification. Digital images of CAM sections exposed to filters were collected using a 3-charge-coupled device color video camera system (Toshiba) and analyzed with Image-Pro software (Media Cybernetics). The number of vessel branch points contained in a circular region equal to the area of each filter disk were counted. One image was counted in each CAM preparation, and findings from 8 to 10 CAM preparations were analyzed for each treatment condition (Nicotine, nicotinic acid analogs). The resulting angiogenesis index is the mean±SEM of new branch points in each set.

Assay [2] deals with normal human dermal fibroblast cells (NHDF). The conditions noted are these: in vitro wound healing.
Procedure: Additionally, a 3-dimensional wound healing method already established in our Laboratory will be utilized in this study (see below).
In Vitro 3D Wound Healing Assay of Human Dermal Fibroblast Cells:
Step 1: Prepare Contracted Collagen Gels: • 1) Coat 24-well plate with 350 ul 2% BSA at RT for 2 hr, • 2) 80% confluent NHDF (normal human dermal fibroblast cells, Passage 5-9) are trypsinized and neutralized with growth medium, centrifuge and wash once with PBS • 3) Prepare collagen-cell mixture, mix gently and always on ice:
• 4) Aspire 2% BSA from 24 well plate, add collagen-cell mixture 350 ul/well, and incubate the plate in 37° C. CO2 incubator. • 5) After 1 hr, add DMEM+5% FBS medium 0.5 ml/well, use a 10 ul tip Detach the collagen gel from the edge of each well, then incubate for 2 days. The fibroblast cells will contract the collagen gel
Step 2: Prepare 3D Fibrin Wound Clot and Embed Wounded Collagen Culture • 1) Prepare fibrinogen solution (1 mg/ml) with or without testing regents. 350 ul fibrinogen solution for each well in eppendorf tube.
• 2) Cut each contracted collagen gel from middle with scissors. Wash the gel with PBS and transfer the gel to the center of each well of 24 well plate • 3) Add 1.5 ul of human thrombin (0.25 U/ul) to each tube, mix well and then add the solution around the collagen gel, the solution will polymerize in 10 mins. […]
Assay [3] relates to CAM of 10-day-old chick embryos. Briefly: Nicotine, nicotinic acid and FGF2 alone and combined, branch points (Table 2, titled Release of FGF2 From Endothelial Cells). Type of assay: in vivo. The conditions noted are these: for Average number of branch Points ± SD: n = 16, control 86 ± 14. The protocol:
as §1
as §2, with “One image was counted in each CAM preparation, and findings from 8 to 10 CAM preparations were analyzed for each treatment condition (Nicotine, nicotinic acid analogs).” left out

“Also recorded” adds a separate entry of the source. Like-named read-outs stand apart in the source and are kept apart here.

For the compound `CN1CCCC1c1cccnc1` (stereo not drawn) [Nicotine], in assay [1], the “New blood vessel generation / branch formation in the CAM model (in words)” value is “promoted new blood vessel generation; also recorded: promotes new blood vessel branch formation”. The “Mean Number of Branch Points ± SD” value in assay [1] (0.1 μg) came to 192 ± 11. The “Stimulation of wound healing (in words)” value in assay [2] is given as “potent stimulation of wound healing”. The “Average number of branch Points ± SD” value in assay [3] (0.05 ug) was determined as 145 ± 10; in assay [3] (0.1 ug), 192 ± 11. In addition, the “Pro-angiogenesis effect compared with FGF2 (in words)” value in assay [3] (Table 2) was “comparable pro-angiogenesis effect to that shown with FGF2”.

As to “FGF2: basic fibroblast growth factor, used as a standard proangiogenic agent”, the “Mean Number of Branch Points ± SD” value in assay [1] (1.0 μg) amounted to 195 ± 22. Further, the “Average number of branch Points ± SD” value is 115 ± 08 in assay [3] (0.5 ug) and 195 ± 22 in assay [3] (1.0 ug).

As for `O=C(O)c1cccnc1` [Nicotinic acid], the “New blood vessel generation / branch formation in the CAM model (in words)” value in assay [1] is listed as “promoted new blood vessel generation”; in assay [1] (listed as nicotinic acid), “promotes new blood vessel branch formation”. For the same compound, in assay [1] (1.0 μg), the “Mean Number of Branch Points ± SD” value was determined as 155 ± 16.

Source of the values: patent US7736636B2, “Method for treating occlusive vascular diseases & wound healing” (priority 2004, dated 2010).
